Laboratory results reported in US10039816B2, “Siderophore-based immunization against gram-negative bacteria” (Massachusetts Institute of Technology, priority 2014, dated 2018).

Experiments:
[1] = coupling reaction conditions
Lipocalin-2 (LCN2) = Lipocalin-2 (LCN2) (Homo sapiens, UniProt P80188); details: e.g., sub-nanomolar or low-nanomolar for ferric enterobactin; cited from earlier work
Glu-Ent = assay type: in vivo; details: Peyer's patch cells, day 21 post-immunization; not in mock-immunized mice
[2] = tested on: pro-inflammatory cytokines (IL-17, IL-22), Lcn2; assay type: in vivo; details: infected vs uninfected mice
enterobactin (Ent) = test: ELISA for fecal anti-enterobactin IgA in immunized mice; assay type: in vivo, C57BL/6 mice; details: 14-21 days post-immunization, persisted up to 51 days post-immunization
intestinal microbiota = test: Microbiota analysis (16S rDNA, Illumina MiSeq) of colon content of immunized mice; assay type: in vivo; details: for Lactobacillus spp. fraction of the microbiota: immunized, infected mice, day 4; for S. Typhimurium fraction of the intestinal microbes: mice infected with S. Typhimurium for 4 days
Ent = assay type: in vivo; details: Peyer's patch cells, day 21 post-immunization; not in mock-immunized mice
salmochelin (Glu-Ent) = test: ELISA/dot blot for fecal anti-salmochelin IgA in immunized mice; assay type: in vivo, C57BL/6 mice; details: day 21 post-immunization
[3] = intranasal, first immunization and boost 14 days later; monitored up to 51 days; no sign of disease
S. Typhimurium = assay type: in vivo, Salmonella enterica serovar Typhimurium; details: for weight loss: C57BL/6 mice, 4 days after infection with 1×10^9 CFU S. Typhimurium, P=0.05
[4] = responders, 96 h after infection

Sequence of Lipocalin-2 (LCN2) (P80188 21-198, species assumed): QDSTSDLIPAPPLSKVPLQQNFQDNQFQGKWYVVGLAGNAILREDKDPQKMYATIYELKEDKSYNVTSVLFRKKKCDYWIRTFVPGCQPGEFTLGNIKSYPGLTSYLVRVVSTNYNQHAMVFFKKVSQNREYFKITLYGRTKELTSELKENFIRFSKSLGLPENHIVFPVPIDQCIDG

O=C(N[C@H]1COC(=O)[C@@H](NC(=O)c2cccc(O)c2O)COC(=O)[C@@H](NC(=O)c2cccc(O)c2O)COC1=O)c1cccc(O)c1O [Enterobactin, enterobactin]
hydrolysis of the trilactone ring in aqueous solution [1]: slowly undergoes hydrolysis

O=C(N[C@H]1COC(=O)[C@@H](NC(=O)c2cccc([O-])c2[O-])COC(=O)[C@@H](NC(=O)c2cccc([O-])c2[O-])COC1=O)c1cccc([O-])c1[O-].[Fe+3] [ferric enterobactin]
capture by LCN2 (Lipocalin-2 (LCN2)): high affinity

CTB-Ent
spots representing Glu-Ent-antibody complexes (ELISPOT) (Glu-Ent): detected | expression of pro-inflammatory cytokines (IL-17, IL-22) and Lcn2 in response to infection [2]: similarly upregulated | specific anti-Ent IgA antibodies in feces (ELISA) (enterobactin (Ent)): detected | Lactobacillus spp. fraction of the microbiota (intestinal microbiota): ~60% | S. Typhimurium fraction of the intestinal microbes (intestinal microbiota): 7% | level of Escherichia spp. (intestinal microbiota; vs low level in mock-immunized mice): further reduced | spots representing Ent-antibody complexes (ELISPOT) (Ent): detected | IgA binding to Glu-Ent (di-glucosylated form) in fecal samples (salmochelin (Glu-Ent)): detected | tolerability of the two immunizations [3]: well tolerated | weight loss (S. Typhimurium): ~6% | bacterial burden of S. Typhimurium in the colon content (S. Typhimurium; in vivo): lower bacterial burden | Salmonella burden, Peyer's patches (S. Typhimurium; [4]): lower Salmonella burden | Salmonella burden, spleen (S. Typhimurium; [4]): lower Salmonella burden | Salmonella burden, terminal ileum (S. Typhimurium; [4]): lower Salmonella burden

Cholera toxin B subunit [CTB, reference compound]
expression of pro-inflammatory cytokines (IL-17, IL-22) and Lcn2 in response to infection [2]: similarly upregulated | Lactobacillus spp. fraction of the microbiota (intestinal microbiota): ~19% | S. Typhimurium fraction of the intestinal microbes (intestinal microbiota): ca. 32% | weight loss (S. Typhimurium): ~10%

salmochelins
capture by LCN2 (Lipocalin-2 (LCN2)): cannot capture
